Read-outs that look alike come from different tables or passages of the source.
Tested on: Myc
Experiment: Myc inhibition assay: Myc expression per cell by anti-Myc immunofluorescence, high-content imaging
Type: cell-based, human (patient-derived medulloblastoma xenograft cells)
Conditions: medulloblastoma PDX cells, 4 h
In short: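 Cells from Myc-driven medulloblastoma patient-derived orthotopic xenografts, propagated only in NSG mouse cerebellum, were dissociated and plated in serum-free medium. After overnight recovery, compounds were applied for 4 hours; cells were then fixed, stained for Myc and DAPI, and per-cell Myc quantified by high-content imaging to derive IC50.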

[1] = Table 1, read-out: IC50 (Myc inhibition)
[2] = Table 2, read-out: MYC Inhibition IC50

| Structure (SMILES) | IC50 [1] [nM] | IC50 [2] [nM] |
| --- | --- | --- |
| Cc1ccc(Nc2nccc(-c3ccc4[nH]cnc4c3)n2)cc1 [Compound 103, 4-(1H-benzo[d]imidazol-5-yl)-N-(p-tolyl)pyrimidin-2-amine] | 200 to 1000 | 200 to 1000 |
| CC(C)Nc1nccc(-c2ccc3[nH]cnc3c2)n1 [Compound 104, 4-(1H-benzo[d]imidazol-5-yl)-N-isopropylpyrimidin-2-amine] | 1000 to 10000 | 1000 to 10000 |
| FC(F)(F)c1cccc(Nc2ncnc(-c3cnc4nc[nH]c4c3)n2)c1 [Compound 105, 4-(1H-Imidazo[4,5-b]pyridin-6-yl)-N-(3-(trifluoromethyl)phenyl)-1,3,5-triazin-2-amine] | < 200 | < 200 |
| FC(F)(F)c1cncc(Nc2nccc(-c3cnc4nc[nH]c4c3)n2)c1 [Compound 106, 4-(1H-imidazo[4,5-b]pyridin-6-yl)-N-(5-(trifluoromethyl)pyridin-3-yl)pyrimidin-2-amine] | < 200 | < 200 |
| FC(F)(F)c1cccc(Nc2nccc(-c3cn4ccnc4cn3)n2)c1 [Compound 107, 4-(Imidazo[1,2-a]pyrazin-6-yl)-N-(3-(trifluoromethyl)phenyl)pyrimidin-2-amine] | 1000 to 10000 | 1000 to 10000 |
| COc1ccc(Nc2ccnc(Nc3cccc(F)c3)n2)cn1 [Compound 108, N^2-(3-fluorophenyl)-N^4-(6-methoxypyridin-3-yl)pyrimidine-2,4-diamine] | 1000 to 10000 | 1000 to 10000 |
| COc1ccc(Oc2ccnc(Nc3cccc(C(F)(F)F)c3)n2)cn1 [Compound 109, 4-((6-methoxypyridin-3-yl)oxy)-N-(3-(trifluoromethyl)phenyl)pyrimidin-2-amine] | 1000 to 10000 | 1000 to 10000 |
| Oc1ccc(Oc2ccnc(Nc3cccc(F)c3)n2)cn1 [Compound 110, 5-((2-((3-fluorophenyl)amino)pyrimidin-4-yl)oxy)pyridin-2-ol] | 1000 to 10000 | 1000 to 10000 |
| FC(F)(F)c1cccc(Nc2nccc(NCCc3cnc[nH]3)n2)c1 [Compound 111, N^4-(2-(1H-Imidazol-4-yl)ethyl)-N^2-(3-(trifluoromethyl)phenyl)pyrimidine-2,4-diamine] | 1000 to 10000 | 1000 to 10000 |
| FC(F)(F)c1cccc(Nc2nccc(N3CCc4[nH]cnc4C3)n2)c1 [Compound 112, 4-(1,4,6,7-tetrahydro-5H-imidazo[4,5-c]pyridin-5-yl)-N-(3-(trifluoromethyl)phenyl)pyrimidin-2-amine] | 1000 to 10000 | 1000 to 10000 |
| Cc1cnc(Nc2cccc(C(F)(F)F)c2)nc1-c1cnc2nc[nH]c2c1 [Compound 113, 4-(1H-imidazo[4,5-b]pyridin-6-yl)-5-methyl-N-(3-(trifluoromethyl)phenyl)pyrimidin-2-amine] | 1000 to 10000 | 1000 to 10000 |
| Cc1cc2nc[nH]c2cc1-c1ccnc(Nc2cccc(C(F)(F)F)c2)n1 [Compound 114, 4-(5-methyl-1H-benzo[d]imidazol-6-yl)-N-(3-(trifluoromethyl)phenyl)pyrimidin-2-amine] | 1000 to 10000 | 1000 to 10000 |
| Fc1cc(-c2ccnc(Nc3cccc(C(F)(F)F)c3)n2)cc2nc[nH]c12 [Compound 115, 4-(7-fluoro-1H-benzo[d]imidazol-5-yl)-N-(3-(trifluoromethyl)phenyl)pyrimidin-2-amine] | < 200 | < 200 |
| O=c1[nH]c2ccc(-c3ccnc(Nc4cccc(C(F)(F)F)c4)n3)cc2[nH]1 [Compound 116, 5-(2-((3-(trifluoromethyl)phenyl)amino)pyrimidin-4-yl)-1H-benzo[d]imidazol-2(3H)-one] | 10000 to 100000 | 10000 to 100000 |
| O=c1[nH]c2ccc(-c3ccnc(Nc4cccc(F)c4)n3)cc2[nH]1 [Compound 117, 5-(2-((3-fluorophenyl)amino)pyrimidin-4-yl)-1,3-dihydro-2H-benzo[d]imidazol-2-one] | 10000 to 100000 | 10000 to 100000 |
| Oc1cc(Nc2ccnc(Nc3cccc(F)c3)n2)ccn1 [Compound 118, 4-((2-((3-fluorophenyl)amino)pyrimidin-4-yl)amino)pyridin-2-ol] | 10000 to 100000 | 10000 to 100000 |
| Nc1ncc(-c2ccnc(Nc3cccc(C(F)(F)F)c3)n2)s1 [Compound 119, 5-(2-((3-(Trifluoromethyl)phenyl)amino)pyrimidin-4-yl)thiazol-2-amine] | < 200 | < 200 |
| NCCOc1cccc(Nc2nccc(-c3ccnc(O)c3)n2)c1 [Compound 120, 4-(2-((3-(2-aminoethoxy)phenyl)amino)pyrimidin-4-yl)pyridin-2-ol] | 1000 to 10000 | 1000 to 10000 |
| COc1cc(-c2ccnc(Nc3cccc(OCCN)c3)n2)ccn1 [Compound 121, N-(3-(2-aminoethoxy)phenyl)-4-(2-methoxypyridin-4-yl)pyrimidin-2-amine] | 1000 to 10000 | 1000 to 10000 |
| COc1cc(Nc2ccnc(Nc3cccc(F)c3)n2)ccn1 [Compound 122, N^2-(3-fluorophenyl)-N^4-(2-methoxypyridin-4-yl)pyrimidine-2,4-diamine] | 1000 to 10000 | 1000 to 10000 |

| Structure (SMILES) | IC50 [1] [nM] | IC50 [2] [nM] |
| --- | --- | --- |
| Oc1ccc(Nc2ccnc(Nc3cccc(F)c3)n2)cn1 [Compound 123, 5-((2-((3-fluorophenyl)amino)pyrimidin-4-yl)amino)pyridin-2-ol] | 10000 to 100000 | 10000 to 100000 |
| COc1ccc(Oc2ccnc(Nc3cccc(F)c3)n2)cn1 [Compound 124] | 10000 to 100000 | 10000 to 100000 |
| Cc1c(-c2ccnc(Nc3cccc(C(F)(F)F)c3)n2)ccc2[nH]cnc12 [Compound 125, 4-(4-methyl-1H-benzo[d]imidazol-5-yl)-N-(3-(trifluoromethyl)phenyl)pyrimidin-2-amine] | 1000 to 10000 | 1000 to 10000 |
| Fc1cc2[nH]cnc2cc1-c1ccnc(Nc2cccc(C(F)(F)F)c2)n1 [Compound 126, 4-(6-fluoro-1H-benzo[d]imidazol-5-yl)-N-(3-(trifluoromethyl)phenyl)pyrimidin-2-amine] | 200 to 1000 | 200 to 1000 |
| FC(F)(F)c1cccc(Nc2nccc(-c3ccc4nccn4c3)n2)c1 [Compound 127, 4-(Imidazo[1,2-a]pyridin-6-yl)-N-(3-(trifluoromethyl)phenyl)pyrimidin-2-amine] | 200 to 1000 | 200 to 1000 |
| OCCOc1cccc(Nc2nccc(-c3ccnc(O)c3)n2)c1 [Compound 128, 4-(2-((3-(2-hydroxyethoxy)phenyl)amino)pyrimidin-4-yl)pyridin-2-ol] | 1000 to 10000 | 1000 to 10000 |
| COc1cc(-c2ccnc(Nc3cccc(OCCO)c3)n2)ccn1 [Compound 129, 2-(3-((4-(2-methoxypyridin-4-yl)pyrimidin-2-yl)amino)phenoxy)ethan-1-ol] | 1000 to 10000 | 1000 to 10000 |
| Oc1ccc(-c2ccnc(Nc3cccc(C(F)(F)F)c3)n2)cc1 [Compound 130, 4-(2-((3-(Trifluoromethyl)phenyl)amino)pyrimidin-4-yl)phenol] | 200 to 1000 | 200 to 1000 |
| Oc1cc(-c2ccnc(Nc3cccc(C(F)(F)F)c3)n2)ncn1 [Compound 131, 2′-((3-(trifluoromethyl)phenyl)amino)-[4,4′-bipyrimidin]-6-ol] | 1000 to 10000 | 1000 to 10000 |
| FC(F)(F)c1cccc(Nc2nccc(-c3cnc4cc[nH]c4c3)n2)c1 [Compound 132, 4-(1H-pyrrolo[3,2-b]pyridin-6-yl)-N-(3-(trifluoromethyl)phenyl)pyrimidin-2-amine] | 200 to 1000 | 200 to 1000 |
| CCCc1cccc(Nc2nccc(-c3cnc4nc[nH]c4c3)n2)c1 [Compound 133, 4-(1H-imidazo[4,5-b]pyridin-6-yl)-N-(3-propylphenyl)pyrimidin-2-amine] | < 200 | < 200 |
| CC(C)c1cccc(Nc2nccc(-c3cnc4nc[nH]c4c3)n2)c1 [Compound 134, 4-(1H-imidazo[4,5-b]pyridin-6-yl)-N-(3-isopropylphenyl)pyrimidin-2-amine] | < 200 | < 200 |
| Cc1cc(Nc2nccc(-c3cnc4nc[nH]c4c3)n2)ccc1F [Compound 135, N-(4-fluoro-3-methylphenyl)-4-(1H-imidazo[4,5-b]pyridin-6-yl)pyrimidin-2-amine] | < 200 | < 200 |
| Cc1cccc(Nc2nccc(-c3cnc4nc[nH]c4c3)n2)c1 [Compound 136, 4-(1H-imidazo[4,5-b]pyridin-6-yl)-N-(m-tolyl)pyrimidin-2-amine] | < 200 | < 200 |
| Fc1cccc(Nc2nccc(-c3ccc4[nH]nnc4c3)n2)c1 [Compound 138, 4-(1H-benzo[d][1,2,3]triazol-5-yl)-N-(3-fluorophenyl)pyrimidin-2-amine] | 1000 to 10000 | 1000 to 10000 |
| FC(F)(F)c1cccc(Nc2nccc(-c3ccc4[nH]nnc4c3)n2)c1 [Compound 139, 4-(1H-Benzo[d][1,2,3]triazol-5-yl)-N-(3-(trifluoromethyl)phenyl)pyrimidin-2-amine] | 200 to 1000 | 200 to 1000 |
| CCc1cccc(Nc2nccc(-c3cnc4nc[nH]c4c3)n2)c1 [Compound 140, N-(3-ethylphenyl)-4-(1H-imidazo[4,5-b]pyridin-6-yl)pyrimidin-2-amine] | < 200 | < 200 |
| Clc1cccc(Nc2nccc(-c3cnc4nc[nH]c4c3)n2)c1 [Compound 141, N-(3-chlorophenyl)-4-(1H-imidazo[4,5-b]pyridin-6-yl)pyrimidin-2-amine] | < 200 | < 200 |
| Cc1nc2ccc(-c3ccnc(Nc4cccc(C(F)(F)F)c4)n3)cc2[nH]1 [Compound 142, 4-(2-Methyl-1H-benzo[d]imidazol-6-yl)-N-(3-(trifluoromethyl)phenyl)pyrimidin-2-amine] | 200 to 1000 | 200 to 1000 |
| COc1ncc(-c2ccnc(Nc3cccc(C(F)(F)F)c3)n2)s1 [Compound 143, 4-(2-methoxythiazol-5-yl)-N-(3-(trifluoromethyl)phenyl)pyrimidin-2-amine] | 200 to 1000 | 200 to 1000 |
